Details: 101.33 kPa, Liquid, Hot wire method

Cc1cccc(C)c1 [1,3-dimethylbenzene]
Details	thermal conductivity [W/m/K]	thermal diffusivity [m2/s]
258.17 K	0.1393	–
258.42 K	0.1391	–
258.58 K	0.1391	–
259.01 K	–	9.79e-08
259.67 K	–	9.79e-08
260.12 K	–	9.82e-08
275.04 K	0.1353	–
275.28 K	0.1353	–
275.44 K	0.1352	–
275.95 K	–	9.46e-08
276.57 K	–	9.45e-08
277 K	–	9.44e-08
287.36 K	0.1323	–
287.6 K	0.1322	–
287.77 K	0.132	–
288.27 K	–	9.16e-08
288.91 K	–	9.19e-08
289.35 K	–	9.17e-08
294.07 K	0.1305	–
294.32 K	0.1305	–
294.49 K	0.1304	–
294.99 K	–	9.03e-08
295.64 K	–	9.06e-08
296.09 K	–	9.03e-08
311.74 K	0.126	–
312 K	0.1259	–
312.18 K	0.1258	–
312.68 K	–	8.65e-08
313.34 K	–	8.66e-08
313.8 K	–	8.64e-08
328.79 K	0.1218	–
329.04 K	0.1216	–
329.22 K	0.1215	–
329.74 K	–	8.28e-08
330.36 K	–	8.22e-08
330.83 K	–	8.22e-08

C1=CCC=CC1 [1,4-cyclohexadiene]
Details	thermal conductivity [W/m/K]	thermal diffusivity [m2/s]
258.46 K	0.1586	–
258.67 K	0.1584	–
258.82 K	0.1583	–
259.36 K	–	1.06e-07
259.93 K	–	1.05e-07
260.35 K	–	1.05e-07
264.86 K	0.1564	–
265.08 K	0.1563	–
265.23 K	0.1562	–
265.75 K	–	1.04e-07
266.36 K	–	1.04e-07
266.77 K	–	1.04e-07
279.38 K	0.1514	–
279.6 K	0.1512	–
279.76 K	0.1511	–
280.29 K	–	9.95e-08
280.9 K	–	9.93e-08
281.33 K	–	9.92e-08
296.2 K	0.1455	–
296.43 K	0.1453	–
296.6 K	0.1452	–
297.14 K	–	9.5e-08
297.75 K	–	9.45e-08
298.19 K	–	9.45e-08
313.9 K	0.1393	–
314.13 K	0.139	–
314.31 K	0.139	–
314.86 K	–	9.01e-08
315.48 K	–	8.95e-08
315.93 K	–	8.95e-08
328.51 K	0.1343	–
328.75 K	0.1341	–
328.93 K	0.134	–
329.48 K	–	8.61e-08
330.11 K	–	8.57e-08
330.58 K	–	8.57e-08

Cc1ccc(C)cc1 [1,4-dimethylbenzene]
Details	thermal conductivity [W/m/K]	thermal diffusivity [m2/s]
287.33 K	0.1296	–
287.55 K	0.1295	–
287.73 K	0.1294	–
288.19 K	–	8.96e-08
288.74 K	–	8.89e-08
289.19 K	–	8.92e-08
294.03 K	0.1278	–
294.27 K	0.1278	–
294.44 K	0.1277	–
294.86 K	–	8.78e-08
295.48 K	–	8.82e-08
295.9 K	–	8.82e-08
311.71 K	0.1234	–
311.94 K	0.1232	–
312.11 K	0.1231	–
312.56 K	–	8.41e-08
313.14 K	–	8.38e-08
313.56 K	–	8.36e-08
328.75 K	0.1191	–
328.99 K	0.119	–
329.16 K	0.1189	–
329.6 K	–	8.03e-08
330.21 K	–	8.02e-08
330.63 K	–	8.01e-08

C=CCCCCC [1-heptene]
Details	thermal conductivity [W/m/K]	thermal diffusivity [m2/s]
262.46 K	0.1325	–
262.75 K	0.1324	–
262.97 K	0.1324	–
263.83 K	–	9.06e-08
264.74 K	–	9.11e-08
265.37 K	–	9.1e-08
280.48 K	0.1268	–
280.8 K	0.1267	–
281.03 K	0.1264	–
281.93 K	–	8.66e-08
282.87 K	–	8.67e-08
283.53 K	–	8.66e-08
297.36 K	0.1213	–
297.71 K	0.1213	–
297.95 K	0.1212	–
298.89 K	–	8.27e-08
299.87 K	–	8.27e-08
300.55 K	–	8.25e-08
320.47 K	0.1144	–
320.83 K	0.1143	–
321.08 K	0.1142	–
322.07 K	–	7.76e-08
323.1 K	–	7.76e-08
323.81 K	–	7.73e-08

C=CCCC [1-pentene]
Details	thermal conductivity [W/m/K]	thermal diffusivity [m2/s]
257.36 K	0.1284	–
257.67 K	0.1283	–
257.93 K	0.1283	–
258.93 K	–	9.28e-08
259.91 K	–	9.28e-08
260.57 K	–	9.25e-08
276.47 K	0.121	–
276.82 K	0.1209	–
277.07 K	0.1203	–
278.11 K	–	8.65e-08
279.18 K	–	8.7e-08
279.9 K	–	8.66e-08
294.04 K	0.1141	–
294.42 K	0.1139	–
294.66 K	0.1139	–
295.8 K	–	8.2e-08
296.87 K	–	8.16e-08
297.67 K	–	8.16e-08
301.07 K	0.1113	–
301.46 K	0.1112	–
301.75 K	0.1111	–
302.88 K	–	7.99e-08
303.99 K	–	7.96e-08
304.8 K	–	7.96e-08

C=C(C)C(C)C [2,3-dimethyl-1-butene]
Details	thermal conductivity [W/m/K]	thermal diffusivity [m2/s]
258.98 K	0.117	–
259.29 K	0.1169	–
259.4 K	0.1168	–
260.37 K	–	8.17e-08
261.29 K	–	8.19e-08
261.55 K	–	8.16e-08
278.29 K	0.1108	–
278.63 K	0.1106	–
278.87 K	0.1105	–
279.73 K	–	7.65e-08
280.7 K	–	7.67e-08
281.39 K	–	7.68e-08
294.18 K	0.1058	–
294.53 K	0.1056	–
294.78 K	0.1055	–
295.65 K	–	7.3e-08
296.68 K	–	7.29e-08
297.38 K	–	7.28e-08
312.86 K	0.1002	–
313.23 K	0.1	–
313.5 K	0.09991	–
314.43 K	–	6.88e-08
315.45 K	–	6.84e-08
316.18 K	–	6.83e-08
322.51 K	0.0974	–
322.9 K	0.0973	–
323.18 K	0.0972	–
324.07 K	–	6.6e-08
325.17 K	–	6.65e-08
325.9 K	–	6.62e-08
326.52 K	0.09639	–
326.91 K	0.09621	–
327.21 K	0.09612	–
328.13 K	–	6.58e-08
329.22 K	–	6.58e-08
330.05 K	–	6.62e-08
